Tests used:
[1] = molecular target: T1, 14-3-3 protein beta/alpha (YWHAB) (Homo sapiens, UniProt P31946); test: Photoaffinity labeling pull-down (Data S1); type: binding; conditions: Comparison PALP1_NA11-PALP1
T1 construct: endogenous in cells; host or cells: human blood leukocytes, labelled live
Experimental: Buffy coats (100 mL) were diluted with ice-cold water (540 mL) for 30 s to lyse red blood cells. Following addition of 10 x HBSS buffer (50 mL) leukocytes were pelleted for 3 min at 300 x g, then washed twice in D-PBS and resuspended in RPMI medium. Cells (2 × 10^7) were plated on 15-cm dishes in DMSO vehicle, 1 μM PALP1 or 1 μM PALP6 for 30 min at 37°C. For competition, 10 μM NA-11 was added for 15 min, and then 1 μM PALP1 was added for an additional 30 min. To crosslink the photoaffinity probe, cells were UV-irradiated (High intensity mercury spot lamp, 100W, 365 nm, UVP) in RPMI for 5 min on ice. Cells were lysed in 200 μL 10 mM Tris pH 7.5, 150 mM NaCl, 1% NP-40, 2.5 mM MgCl2, 0.5 mM CaCl2, 2% glycerol, 10 μg/mL DNase-I, and 1 x EDTA-free Protease inhibitor cocktail. Lysates from 5 plates for each condition were pooled and incubate 10 min on ice.
Biotin-DADPS tagging, biotin-streptavidin affinity purification, and on-bead digestion were performed as described ([Hewings et al., 2018]). Briefly, lysates were cleared by centrifugation and the lysate concentration adjusted to 5 mg/mL. Streptavidin Ultralink Resin (100 μL of 50% slurry, Pierce) was washed twice with PBS and mixed with 1 mL of lysate for 30 min at room temperature. […]
For the classical TPP, quantitative data from each temperature were used to generate a thermal titration curve and calculate a melting point. […]

PMNs = test: LC-MS of glycolysis and pentose phosphate pathway metabolites; type: cell-based, human
Experimental: Neutrophils (1 × 10^7) were untreated or pretreated with 0.5 μM NA-11 for 25 min, and then activated with 50 nM PMA for 30 min. Cell were washed twice in D-PBS and frozen in liquid nitrogen. Metabolites were extracted following protein precipitation using 500 μL cold (−80°C) MeOH:H2O (8:2, V:V) mixture. Aliquots (250 μL) were evaporated and reconstituted with 75 μL of MeOH:H2O (8:2, V:V) containing a series of stable isotope labeled internal standards. LC-MS analysis was performed on a Shimadzu Nexera HPLC series system (Shimadzu, Kyoto, Japan) couple with a Thermo Q Exactive Plus Hybrid Quadrupole-Orbitrap Mass Spectrometer (Thermo Fisher Scientific, Waltham, MA, USA). A Phenomenex Luna NH2 HPLC column (100 Å, 250 mm × 2 mm × 3 μm, Phenomenex, Torrance, CA, USA) was used to separate the analytes of interest. Samples (5 μL) were analyzed under Heated Electrospray Ionization (HESI) in negative mode with a flow rate of 0.4 mL/min and a total run time of 50 min. The mobile phases consisted of (A) 20 mM ammonium hydroxide and 20 mM ammonium acetate in H2O and (B) acetonitrile. The gradient was 0 min, 85% B; 0.5 min, 85% B; 15 min, 0% B; 38 min, 0% B; 40 min, 85% B; 50 min, 85% B. The autosampler temperature was 4°C, and the column temperature was 40°C. The Q Exactive Plus Mass Spectrometer parameters were: sheath gas flow rate, 50 units; aux gas flow rate, 13 units; aux gas temperature, 425°C; capillary temperature, 263°C; spray voltage, −2500 V; scan mode, full MS; scan range, 60-900 m/z; resolution, 70,000; AGC target, 3 × 10^6; maximum IT, 200 ms. Data was processed with TraceFinder (Thermo Fisher Scientific, Waltham, MA, USA). %RSDs of a series of stable isotope-labeled internal standards were calculated to check system suitability and data robustness. Relative MS peak area ratio (Peak Area of Analyte / Peak Area of Internal Standard) was used for compound quantification. […] Pyruvate concentration was quantified using a calibration curve of chemical standard (with stable isotope labeled internal standard, Pyruvate-^13C3) in the surrogate matrix.

[2] = in the context of PMA activation

T1 sequence (P31946 whole entry): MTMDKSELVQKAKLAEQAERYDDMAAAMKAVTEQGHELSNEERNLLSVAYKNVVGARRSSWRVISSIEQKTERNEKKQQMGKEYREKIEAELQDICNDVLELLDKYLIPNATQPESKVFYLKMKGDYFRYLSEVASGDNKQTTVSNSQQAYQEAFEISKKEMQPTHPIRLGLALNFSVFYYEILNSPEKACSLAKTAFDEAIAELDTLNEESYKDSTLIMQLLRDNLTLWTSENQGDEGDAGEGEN

CC(=O)Nc1ccc2c(c1)OCc1cc(-c3ccccc3C#CCCCO)nn1C2 [NA-11] was tested. Which log2FC [1] did it give?
Its log2FC is 0.13.

What about the “levels of FBP” value (PMNs; compound alone, no PMA) of the same molecule?
Its value is “slightly increased levels of FBP”.

What about the “glycolysis metabolites (FBP, DHAP, G-3-P)” value (PMNs; [2]) of the same molecule?
Its value is “increased glycolysis metabolites”.

And the “pentose phosphate pathway metabolites” value (PMNs; [2])?
Its value is “maintained pentose phosphate pathway metabolites at baseline levels”.
